Results on 40 molecules are retold here after patent US9296725B2, “Heterocyclyl pyrimidine analogues as TYK2 inhibitors” (Cellzome Limited, priority 2012, dated 2016).

Read-outs that look alike come from different tables or passages of the source.

One assay concerns the target T1, JAK2 (Homo sapiens, UniProt O60674).
T1 construct: endogenous in cells; host or cells: Molt4 (ATCC CRL-1582) and Ramos (ATCC CRL-1596), mixed lysate 1:2
The experiment in a line: Kinobeads assay, JAK2 (competition binding in mixed Molt4/Ramos cell lysate, dot blot detection). The settings on record: read-out: JAK2 Band (Kinobeads assay potency, IC50). As to the method:
(§1) The compounds of the present invention as described in the previous examples were tested in a Kinobeads™ assay as described for ZAP-70 (WO-A 2007/137867). Briefly, test compounds (at various concentrations) and the affinity matrix with the immobilized aminopyrido-pyrimidine ligand 24 were added to cell lysate aliquots and allowed to bind to the proteins in 10 the lysate sample. After the incubation time the beads with captured proteins were separated from the lysate. Bound proteins were then eluted and the presence of TYK2 and JAK2 was detected and quantified using specific antibodies in a dot blot procedure and the Odyssey infrared detection system. Dose response curves for individual kinases were generated and IC50 values calculated. Kinobeads™ assays have been previously described (WO-A 2007/137867; WO-A 2006/134056).
(§2) The affinity matrix was washed two times with 15 mL of 1×DP buffer containing 0.2% NP40 (IGEPAL® CA-630, Sigma, #13021) and then resuspended in 1×DP buffer containing 0.2% NP40 (3% beads slurry). 5×DP buffer: 250 mM Tris-HCl pH 7.4, 25% Glycerol, 7.5 mM MgCl2, 750 mM NaCl, 5 mM Na3VO4; filter the 5×DP buffer through a 0.22 μm filter and store in aliquots at −80° C. The 5×DP buffer is diluted with H2O to 1×DP buffer containing 1 mM DTT and 25 mM NaF.
(§3) Stock solutions of test compounds were prepared in DMSO. In a 96 well plate 30 μL solution of diluted test compounds at 5 mM in DMSO were prepared. Starting with this solution a 1:3 dilution series (9 steps) was prepared. For control experiments (no test compound) a buffer containing 2% DMSO was used.
(§4) Molt4 cells (ATCC catalogue number CRL-1582) and Ramos cells (ATCC catalogue number CRL-1596) were grown in 1 L Spinner flasks (Integra Biosciences, #182101) in suspension in RPMI 1640 medium (Invitrogen, #21875-034) supplemented with 10% Fetal Bovine Serum (Invitrogen) at a density between 0.15×10^6 and 1.2×10^6 cells/mL. Cells were harvested by centrifugation, washed once with 1×PBS buffer (Invitrogen, #14190-094) and cell pellets were frozen in liquid nitrogen and subsequently stored at −80° C. Cells were homogenized in a Potter S homogenizer in lysis buffer: 50 mM Tris-HCl, 0.8% NP40, 5% glycerol, 150 mM NaCl, 1.5 mM MgCl2, 25 mM NaF, 1 mM sodium vanadate, 1 mM DTT, pH 7.5. One complete EDTA-free tablet (protease inhibitor cocktail, Roche Diagnostics, 1873580) per 25 mL buffer was added. The material was dounced 10 times using a mechanized POTTER S, transferred to 50 mL falcon tubes, incubated for 30 minutes on ice and spun down for 10 minutes at 20,000 g at 4° C. (10,000 rpm in Sorvall SLA600, precooled). The supernatant was transferred to an ultracentrifuge (UZ)-polycarbonate tube (Beckmann, 355654) and spun for 1 hour at 100.000 g at 4° C. (33.500 rpm in Ti50.2, precooled). The supernatant was transferred again to a fresh 50 mL falcon tube, the protein concentration was determined by a Bradford assay (BioRad) and samples containing 50 mg of protein per aliquot were prepared. The samples were immediately used for experiments or frozen in liquid nitrogen and stored frozen at −80° C.
(§5) Cell lysate (approximately 50 mg protein per plate) was thawed in a water bath at room temperature and then stored on ice. To the thawed cell lysate 1×DP 0.8% NP40 buffer containing protease inhibitors (1 tablet for 25 mL buffer; EDTA-free protease inhibitor cocktail; Roche Diagnostics 1873580) was added in order to reach a final protein concentration of 10 mg/mL total protein. The diluted cell lysate was stored on ice. Mixed Molt4/Ramos lysate was prepared by combining one volume of Molt4 lysate and two volumes of Ramos lysate (ratio 1:2).
(§6) To a 96 well filter plate (Multiscreen HTS, BV Filter Plates, Millipore #MSBVN1250) were added per well: 100 μL affinity matrix (3% beads slurry), 3 μL of compound solution, and 50 μL of diluted lysate. Plates were sealed and incubated for 3 hours in a cold room on a plate shaker (Heidolph tiramax 1000) at 750 rpm. […]

Another assay concerns the target T2, TYK2 (Homo sapiens, UniProt P29597).
T2 construct: endogenous in cells; host or cells: Molt4 (ATCC CRL-1582) and Ramos (ATCC CRL-1596), mixed lysate 1:2
Kind of assay: Kinobeads assay, TYK2 (competition binding in mixed Molt4/Ramos cell lysate, dot blot detection). As to the method:
as §1, §2, §3, §4, §5, §6

Where [1] appears, read: Kinobeads assay, Molt4/Ramos lysate, read-out: TYK2 Band (Kinobeads assay potency, IC50).

T2 sequence (P29597 whole entry): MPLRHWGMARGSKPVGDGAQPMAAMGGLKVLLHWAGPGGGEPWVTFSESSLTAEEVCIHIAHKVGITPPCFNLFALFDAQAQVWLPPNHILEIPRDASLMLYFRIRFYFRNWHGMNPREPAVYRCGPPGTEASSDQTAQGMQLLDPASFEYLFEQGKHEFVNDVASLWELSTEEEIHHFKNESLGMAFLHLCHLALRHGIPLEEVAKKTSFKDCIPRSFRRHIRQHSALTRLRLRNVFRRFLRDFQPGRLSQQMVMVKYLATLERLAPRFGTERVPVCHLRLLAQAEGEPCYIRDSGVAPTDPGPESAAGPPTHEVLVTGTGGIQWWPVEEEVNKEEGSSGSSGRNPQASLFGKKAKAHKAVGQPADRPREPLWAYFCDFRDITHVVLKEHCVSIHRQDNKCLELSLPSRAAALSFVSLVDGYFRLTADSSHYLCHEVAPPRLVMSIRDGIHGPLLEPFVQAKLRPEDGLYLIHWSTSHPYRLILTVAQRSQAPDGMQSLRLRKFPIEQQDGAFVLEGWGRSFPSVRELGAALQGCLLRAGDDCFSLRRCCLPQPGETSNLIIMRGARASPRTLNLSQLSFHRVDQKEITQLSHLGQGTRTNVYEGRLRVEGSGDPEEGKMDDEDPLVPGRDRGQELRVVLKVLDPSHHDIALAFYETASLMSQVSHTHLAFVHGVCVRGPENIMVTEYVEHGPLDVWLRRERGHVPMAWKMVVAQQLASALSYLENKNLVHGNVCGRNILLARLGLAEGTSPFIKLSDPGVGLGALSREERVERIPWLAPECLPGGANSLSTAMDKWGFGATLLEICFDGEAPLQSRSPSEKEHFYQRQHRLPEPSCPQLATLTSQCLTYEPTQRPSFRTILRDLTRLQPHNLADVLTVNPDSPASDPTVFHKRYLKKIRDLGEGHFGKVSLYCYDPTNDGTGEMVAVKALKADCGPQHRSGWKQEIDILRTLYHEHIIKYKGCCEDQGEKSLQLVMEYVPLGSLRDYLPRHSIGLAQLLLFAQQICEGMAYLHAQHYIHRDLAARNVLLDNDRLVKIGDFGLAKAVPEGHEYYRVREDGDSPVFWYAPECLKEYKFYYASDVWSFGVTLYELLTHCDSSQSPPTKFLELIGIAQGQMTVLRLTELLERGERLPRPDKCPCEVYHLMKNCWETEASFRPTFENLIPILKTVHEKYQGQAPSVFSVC
T1 sequence (O60674 whole entry): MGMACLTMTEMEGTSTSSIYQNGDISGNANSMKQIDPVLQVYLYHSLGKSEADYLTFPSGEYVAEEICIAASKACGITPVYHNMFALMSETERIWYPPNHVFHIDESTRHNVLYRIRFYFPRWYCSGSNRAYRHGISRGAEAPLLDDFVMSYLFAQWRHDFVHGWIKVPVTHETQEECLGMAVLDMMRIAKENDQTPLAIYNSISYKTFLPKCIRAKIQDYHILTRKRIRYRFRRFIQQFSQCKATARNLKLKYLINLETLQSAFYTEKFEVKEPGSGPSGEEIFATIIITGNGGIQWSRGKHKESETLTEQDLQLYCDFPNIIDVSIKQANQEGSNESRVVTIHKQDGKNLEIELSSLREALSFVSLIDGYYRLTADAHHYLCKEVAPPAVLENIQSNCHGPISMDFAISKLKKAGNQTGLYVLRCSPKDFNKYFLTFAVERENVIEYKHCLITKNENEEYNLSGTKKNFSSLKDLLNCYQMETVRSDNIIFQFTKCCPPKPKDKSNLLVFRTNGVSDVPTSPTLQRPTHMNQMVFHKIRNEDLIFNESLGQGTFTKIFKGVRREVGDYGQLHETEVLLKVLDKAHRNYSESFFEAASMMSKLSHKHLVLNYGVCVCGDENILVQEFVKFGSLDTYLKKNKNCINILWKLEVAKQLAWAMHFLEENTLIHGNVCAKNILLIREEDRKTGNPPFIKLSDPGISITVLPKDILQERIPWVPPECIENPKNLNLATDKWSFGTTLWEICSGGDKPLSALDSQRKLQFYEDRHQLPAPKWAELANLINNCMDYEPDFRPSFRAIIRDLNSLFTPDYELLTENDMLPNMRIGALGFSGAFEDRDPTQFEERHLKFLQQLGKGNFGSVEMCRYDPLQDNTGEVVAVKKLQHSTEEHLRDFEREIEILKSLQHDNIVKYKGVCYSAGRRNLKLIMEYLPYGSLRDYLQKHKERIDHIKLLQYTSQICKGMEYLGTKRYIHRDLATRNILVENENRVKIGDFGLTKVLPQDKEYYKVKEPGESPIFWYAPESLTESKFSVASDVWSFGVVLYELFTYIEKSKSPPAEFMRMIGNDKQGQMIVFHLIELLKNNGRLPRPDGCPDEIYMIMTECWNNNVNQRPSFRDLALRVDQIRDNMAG

As usually defined, the IC50 is the concentration at which inhibition is half-maximal. As to `C[C@H](CO)NC(=O)Cn1cc(Nc2nccc(NCc3c(F)cccc3F)n2)cn1` [Example I-490], the IC50 was 1000 to 10000 nM on JAK2 and 10 to 100 nM at TYK2 (setting [1]).
The corresponding values for `CN(C)CCNC(=O)Cn1cc(Nc2ncc(Cl)c(NCc3cccc(OCC#N)c3)n2)cn1` [Example I-367] are 1000 to 10000 nM and 100 to 1000 nM.
As to `O=C(Cn1cc(Nc2nccc(NCc3c(F)cc(F)cc3F)n2)cn1)N[C@@H]1CCOC1` [Example I-137], the IC50 lay in the range of 1000 to 10000 nM on JAK2 and 10 to 100 nM at TYK2 (setting [1]).
Turning to `CNS(=O)(=O)c1ccccc1CNc1nc(Nc2cnn(CCO)c2)ncc1Cl` [Example I-472], the IC50 at JAK2 was in the range of 100 to 1000 nM; on TYK2 (setting [1]), 10 to 100 nM.
The matching figures for `COc1ccc(Cl)c(CNc2ccnc(Nc3cnn(C)c3)n2)c1F` [Example I-61]: 100 to 1000 nM and 10 to 100 nM.
The corresponding values for `Cc1cnc(Nc2cnn(CC(F)F)c2)nc1NCc1ccc(S(N)(=O)=O)cc1` [Example I-465] are 1000 to 10000 nM and 100 to 1000 nM.
The matching figures for `CCOc1ccc(F)c(CNc2nc(Nc3cnn(CC(=O)N(C)C)c3)ncc2Cl)c1F` [Example I-268]: 1000 to 10000 nM and 10 to 100 nM.
Consider `Cn1cc(Nc2ncc(F)c(NCc3c(F)c(F)cc(F)c3F)n2)cn1` [Example I-462], for which the figures for the IC50 on JAK2 and at TYK2 (setting [1]) were 1000 to 10000 nM and 100 to 1000 nM, respectively.
The matching figures for `OCCn1cc(Nc2ncc(F)c(NCc3c(F)cccc3F)n2)cn1` [Example I-204]: 1000 to 10000 nM and no more than 10 nM.
The matching figures for `Cn1cc(Nc2ncc(F)c(NCc3cccc(F)c3F)n2)cn1` [Example I-177]: 1000 to 10000 nM and 100 to 1000 nM.
As to `OCCn1cc(Nc2ncc(F)c(NCc3ccccc3F)n2)cn1` [Example I-205], the IC50 on JAK2 lay in the range of 1000 to 10000 nM; on TYK2 (setting [1]) it was 10 to 100 nM.
For the molecule `CNC(=O)Cn1cc(Nc2ncc(F)c(NCc3c(F)cccc3F)n2)cn1` [Example I-381], the results for the IC50 at JAK2 and at TYK2 (setting [1]) were 1000 to 10000 nM and 10 to 100 nM, respectively.
Consider `CS(=O)(=O)c1ccccc1CNc1nc(Nc2cnn(CC(N)=O)c2)ncc1Cl` [Example I-450], for which the IC50 on JAK2 and on TYK2 (setting [1]) was 100 to 1000 nM in each case.
For `Cn1cc(Nc2nccc(NCc3c(F)cccc3Cl)n2)cn1` [Example I-55], the IC50 lay within 1000 to 10000 nM on JAK2 and 10 to 100 nM at TYK2 (setting [1]).
Regarding `O=C(Cn1cc(Nc2ncc(F)c(NCc3cccc(OC(F)F)c3)n2)cn1)N1CCOCC1` [Example I-44], the IC50 was 1000 to 10000 nM at JAK2 and no more than 10 nM at TYK2 (setting [1]).
Turning to `CC(C)CNC(=O)Cn1cc(Nc2ncc(Cl)c(NCc3cccc(OC(F)F)c3)n2)cn1` [Example I-392], the IC50 at JAK2 lay in the range of 1000 to 10000 nM; on TYK2 (setting [1]) it was 10 to 100 nM.
As to `CC(C)NC(=O)Cn1cc(Nc2ncc(Cl)c(NCc3c(F)cc(F)cc3F)n2)cn1` [Example I-393], the IC50 on JAK2 is greater than 10000 nM; at TYK2 (setting [1]), 10 to 100 nM.
The corresponding values for `CN(C)C(=O)Cn1cc(Nc2ncc(Cl)c(NCc3cccc(OCC#N)c3)n2)cn1` [Example I-365] are 1000 to 10000 nM and 10 to 100 nM.
The matching figures for `CC(C)NC(=O)Cn1cc(Nc2nccc(NCc3c(F)cccc3Cl)n2)cn1` [Example I-77]: 1000 to 10000 nM and no more than 10 nM.
For the molecule `O=C(Cn1cc(Nc2ncc(Cl)c(NCc3ccccc3)n2)cn1)N1CC2CCC1CN2` (stereo not drawn) [Example I-194], the IC50 at JAK2 was in the range of 100 to 1000 nM; at TYK2 (setting [1]) it was 10 to 100 nM.
For `N#CC1CN(C(=O)Cn2cc(Nc3ncc(Cl)c(NCc4ccccc4)n3)cn2)C1` [Example I-274], the IC50 on JAK2 was in the range of 1000 to 10000 nM; on TYK2 (setting [1]), 10 to 100 nM.
The corresponding values for `[2H]C([2H])(O)C([2H])([2H])n1cc(Nc2ncc(Cl)c(NCc3cccc(F)c3)n2)cn1` [Example I-232] are 1000 to 10000 nM and 100 to 1000 nM.
The matching figures for `O=C(Cn1cc(Nc2nccc(NCc3c(F)cccc3Cl)n2)cn1)N1CCOCC1` [Example I-129]: greater than 10000 nM and no more than 10 nM.
The matching figures for `Cn1cc(Nc2nccc(NCc3c(Cl)ccc(F)c3F)n2)cn1` [Example I-68]: 100 to 1000 nM and 10 to 100 nM.
As for `COc1ccc(F)c(CNc2ccnc(Nc3cnn(CC(=O)N[C@@H]4C[C@@H]4F)c3)n2)c1F` [Example I-128], the values for the concentration for half-maximal inhibition (IC50) at JAK2 and on TYK2 (setting [1]) were 1000 to 10000 nM and 10 to 100 nM, respectively.
The corresponding values for `C[C@@H](O)Cn1cc(Nc2ncc(Cl)c(NCc3ccccc3F)n2)cn1` [Example I-256] are 1000 to 10000 nM and 100 to 1000 nM.
The corresponding values for `CCOc1ccc(F)c(CNc2nc(Nc3cn[nH]c3)ncc2Cl)c1F` [Example I-368] are 1000 to 10000 nM and 10 to 100 nM.
Take `Cc1cnc(Nc2cnn(CC(=O)O)c2)nc1NCc1c(F)cc(F)cc1F` [Example I-306]: the IC50 lay in the range of 1000 to 10000 nM at JAK2 and 10 to 100 nM on TYK2 (setting [1]).
Consider `Fc1cc(F)cc(CNc2nc(Nc3cnn(CC(F)F)c3)ncc2Cl)c1` [Example I-470], for which the IC50 on JAK2 and at TYK2 (setting [1]) was 100 to 1000 nM in each case.
Consider `O=C(Cn1cc(Nc2nccc(NCc3c(F)cccc3Cl)n2)cn1)NCC(F)F` [Example I-141], for which the IC50 is 1000 to 10000 nM at JAK2 and 10 to 100 nM on TYK2 (setting [1]).
The matching figures for `CNC(=O)Cn1cc(Nc2ncc(Cl)c(NCc3ccccc3S(=O)(=O)NC)n2)cn1` [Example I-355]: 100 to 1000 nM and 100 to 1000 nM.
The corresponding values for `Cc1cnc(Nc2cnn(CC(F)(F)F)c2)nc1NCc1cc(F)cc(F)c1F` [Example I-351] are 1000 to 10000 nM and 1000 to 10000 nM.
Take `CC(C)NC(=O)Cn1cc(Nc2ncc(F)c(NCc3c(F)cc(F)cc3F)n2)cn1` [Example I-38]: the figures for the IC50 on JAK2, at TYK2 (setting [1]) and on TYK2 (read-out: TYK2 IC50) were 1000 to 10000 nM, no more than 10 nM and less than 100 nM, respectively.
As to `CCOC(=O)Cn1cc(Nc2ncc(F)c(NCc3c(F)cc(F)cc3F)n2)cn1` [Example I-54, Ethyl 2-(4-((5-fluoro-4-((2,4,6-trifluorobenzyl)amino)pyrimidin-2-yl)amino)-1H-pyrazol-1-yl)acetate], the IC50 lay in the range of 1000 to 10000 nM on JAK2 and 10 to 100 nM at TYK2 (setting [1]).
Consider `NC(=O)Cn1cc(Nc2ncc(Cl)c(NCc3ccccc3CO)n2)cn1` [Example I-288], for which the IC50 on JAK2 fell in the range of 1000 to 10000 nM; on TYK2 (setting [1]) it was 100 to 1000 nM.
With `Cn1cc(Nc2ncc(Cl)c(NCc3cc(C(F)(F)F)ccc3Cl)n2)cn1` [Example I-278], the IC50 lay within 1000 to 10000 nM at JAK2 and 100 to 1000 nM at TYK2 (setting [1]).
The corresponding values for `CN(C)C(=O)Cn1cc(Nc2ncc(F)c(NCc3c(F)cccc3F)n2)cn1` [Example I-382] are 1000 to 10000 nM and 10 to 100 nM.
The matching figures for `O=C(Cn1cc(Nc2nccc(NCc3c(F)cc(F)cc3F)n2)cn1)NCC1COCCO1` (stereo not drawn) [Example I-432]: 1000 to 10000 nM and 10 to 100 nM.
The matching figures for `CS(=O)(=O)NCc1cccc(CNc2nc(Nc3cnn(CC(N)=O)c3)ncc2Cl)c1` [Example I-397]: 1000 to 10000 nM and 100 to 1000 nM.
As to `CS(=O)(=O)c1ccccc1CNc1nc(Nc2cnn(CCO)c2)ncc1F` [Example I-435], the figures for the IC50 on JAK2 and at TYK2 (setting [1]) were 1000 to 10000 nM and 100 to 1000 nM, respectively.
